Results: the NIST ThermoML archive (doi:10.1016/j.tca.2017.12.013)
± gives the expanded uncertainty stated by the source.

Assay: molar heat capacity at constant pressure
Settings: 101.33 kPa, Crystal 2, DSC

[Ag+].[Ag+].[S-2] [silver sulfide]
Settings	molar heat capacity at constant pressure [J/K/mol]
540.82 K	87.31 ± 3.5
541.82 K	87.3 ± 3.5
542.82 K	87.29 ± 3.5
543.82 K	87.28 ± 3.5
544.82 K	87.27 ± 3.5
545.82 K	87.26 ± 3.5
546.82 K	87.26 ± 3.5
547.82 K	87.25 ± 3.5
548.82 K	87.24 ± 3.5
549.82 K	87.23 ± 3.5
550.82 K	87.22 ± 3.5
551.82 K	87.22 ± 3.5
552.82 K	87.21 ± 3.5
553.82 K	87.2 ± 3.5
554.82 K	87.19 ± 3.5
555.82 K	87.18 ± 3.5
556.82 K	87.17 ± 3.5
557.82 K	87.17 ± 3.5
558.82 K	87.16 ± 3.5
559.82 K	87.15 ± 3.5
560.82 K	87.14 ± 3.5
561.82 K	87.13 ± 3.5
562.82 K	87.12 ± 3.5
563.82 K	87.11 ± 3.5
564.82 K	87.1 ± 3.5
565.82 K	87.09 ± 3.5
566.82 K	87.07 ± 3.5
567.82 K	87.06 ± 3.5
568.82 K	87.05 ± 3.5
569.82 K	87.04 ± 3.5
570.82 K	87.02 ± 3.5
571.82 K	87.01 ± 3.5
572.82 K	87 ± 3.5
573.82 K	86.98 ± 3.5
574.82 K	86.97 ± 3.5
575.82 K	86.95 ± 3.5
576.82 K	86.94 ± 3.5
577.82 K	86.92 ± 3.5
578.82 K	86.91 ± 3.5
579.82 K	86.89 ± 3.5
580.82 K	86.87 ± 3.5
581.82 K	86.85 ± 3.5
582.82 K	86.83 ± 3.5
583.82 K	86.82 ± 3.5
584.82 K	86.8 ± 3.5
585.82 K	86.78 ± 3.5
586.82 K	86.76 ± 3.5
587.82 K	86.74 ± 3.5
588.82 K	86.72 ± 3.5
589.82 K	86.7 ± 3.5
590.82 K	86.67 ± 3.5
591.82 K	86.65 ± 3.5
592.82 K	86.63 ± 3.5
593.82 K	86.61 ± 3.5
594.82 K	86.61 ± 3.5
595.82 K	86.63 ± 3.5
596.82 K	86.62 ± 3.5
597.82 K	86.62 ± 3.5
598.82 K	86.6 ± 3.5
599.82 K	86.6 ± 3.5
600.82 K	86.58 ± 3.5
601.82 K	86.55 ± 3.5
602.82 K	86.53 ± 3.5
603.82 K	86.5 ± 3.5
604.82 K	86.48 ± 3.5
605.82 K	86.45 ± 3.5
606.82 K	86.43 ± 3.5
607.82 K	86.4 ± 3.5
608.82 K	86.38 ± 3.5
609.82 K	86.35 ± 3.5
610.82 K	86.33 ± 3.5
611.82 K	86.3 ± 3.5
612.82 K	86.28 ± 3.4
613.82 K	86.25 ± 3.4
614.82 K	86.23 ± 3.4
615.82 K	86.2 ± 3.4
616.82 K	86.18 ± 3.4
